# Test results from article PMC12613848, “First in human phase 1 study of DT2216, a selective BCL-xL degrader, in patients with relapsed/refractory solid malignancies” (Journal of Hematology & Oncology, 2025).
# “Also recorded” adds a separate entry of the source.
# Target: T1, BCL-XL (Homo sapiens, UniProt Q07817)
# T1 construct: endogenous in cells; host or cells: peripheral leukocytes (WBC) of trial patients
# Assay: BCL-XL levels in peripheral leukocytes of patients by western blotting
# Assay type: in vivo
# Conditions: 0.4 mg/kg IV, 4 patients, after C1D1
# Experimental: Methods A dose escalation study using a 3 + 3 design with doses ranging from 0.04 to 0.4 mg/kg IV twice weekly (BIW) was performed. Eligible subjects had solid tumors of any histology that had progressed on standard treatment and had measurable tumor by RECIST v1.1. Tumor assessment was performed at 8-week intervals. BCL-XL levels were measured in peripheral leukocytes by western blotting. Results Twenty patients were enrolled, with a median age of 60.5 year; 60% were female. Only one dose-limiting toxicity was observed, grade 4 thrombocytopenia that resolved within 48 h. Stable disease, observed in 20% of the patients. The lowest platelet count in the first cycle ranged from 24,000 to 297,000. In all cases, the platelet count recovered to > 50,000 within 4 days and > 75,000 within 1 week. […] The median overall survival was 7.9 months. […] Conclusions Based on the rapid recovery of transient thrombocytopenia that occurred only in the first cycle and the degradation of BCL-XL in peripheral leukocytes, the RP2D of DT2216 is 0.4 mg/kg IV BIW. (NCT04886622)
# Premedication prior to each infusion was at the discretion of the investigator or according to institutional guidelines. Patient assessment and follow-up procedures can be found in the schedule of assessments in this study. The clinical response was evaluated using RECIST v1.1 per protocol. […]
# T1 sequence (Q07817 whole entry): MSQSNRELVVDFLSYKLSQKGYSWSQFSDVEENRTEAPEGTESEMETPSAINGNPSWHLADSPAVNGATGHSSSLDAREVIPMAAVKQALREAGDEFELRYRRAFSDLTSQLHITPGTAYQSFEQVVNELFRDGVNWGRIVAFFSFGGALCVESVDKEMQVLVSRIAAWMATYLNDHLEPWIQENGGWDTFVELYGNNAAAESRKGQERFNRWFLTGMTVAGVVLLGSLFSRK
structure (smiles),measurement,value
Cc1ncsc1-c1ccc([C@H](C)NC(=O)[C@@H]2C[C@@H](O)CN2C(=O)[C@@H](NC(=O)CCCCCC(=O)N2CCN(CC[C@H](CSc3ccccc3)Nc3ccc(S(=O)(=O)NC(=O)c4ccc(N5CCN(CC6=C(c7ccc(Cl)cc7)CCC(C)(C)C6)CC5)cc4)cc3S(=O)(=O)C(F)(F)F)CC2)C(C)(C)C)cc1 [DT2216],BCL-XL expression in peripheral leukocytes,rapid and sustained degradation of BCL-XL; also recorded: decreases rapidly after infusion of DT2216 and is persistent
